One data set has as its system Dogs. The data set is described as follows: ATR-101 in dogs, serum steroid and steroid precursor levels by LC-MS/MS pre- and post-ACTH stimulation. It is filed as in vivo, dog. The following applies: 3 mg/kg daily 7 days then 30 mg/kg 7 days, oral gavage. The method, then:
Changes in steroid and steroid intermediate levels are shown as % reduction as compared to maximum level as measured on Day 0. *Day 1 data used for maximum steroid level. **Day 3 data used for maximum steroid level.
Dogs were administered daily doses of 3 mg/kg of ATR-101 for 7 days by oral gavage, and then 30 mg/kg for 7 days by oral gavage. Blood was collected on day 14 to measure basal steroid and steroid precursor serum levels (pre-ACTH stimulation) and steroid/steroid precursor levels post-ACTH stimulation by LC-MS/MS. For ACTH stimulation, 5 μg/kg (not to exceed 250 μg) of CORTROSYN™ (also known as cosyntropin or synthetic ACTH) was administered via bolus i.v. administration, and blood samples were collected 1 hour post-CORTROSYN™ administration. Changes in steroid and steroid precursor levels are shown as % reduction as compared to maximum level as measured on Day 0, except as noted (see, FIG. 2; *Day 1 data used for maximum steroid level; **Day 3 data used for maximum steroid level).

In data set [1] the test system is human adult patients with Cushing's disease. The following applies: cited from earlier work.
The subject of data set [2] is human, adult patients with Cushing's disease. To be noted: cited from earlier work.

As for `CC(C)c1cccc(C(C)C)c1NC(=O)NCC1(c2ccc(N(C)C)cc2)CCCC1` [ATR-101, N-(2,6-bis(1-methylethyl)-phenyl)-N′-((1-(4-(dimethylamino)phenyl)cyclopentyl)-methyl)urea], the “synthesis of steroids and steroid precursors produced in the adrenal cortex” value with Dogs (day 14, FIG. 4) is reported as “broad inhibitory effects”. Further, in the data set on Dogs (day 14 serum), the 11-deoxycorticosterone level result is recorded as “decreased”, the 11-deoxycortisol level entry is “decreased” and the testosterone level entry was “decreased”.
Take `N#Cc1ccc([C@H]2CCc3cncn32)c(F)c1` [osilodrostat]: the “secretion of ACTH” value in data set [1] (during LCI699 treatment (day 70) vs day 1, FIG. 2A) was “increased secretion of ACTH”. Moreover, in data set [1] (during LCI699 treatment (day 70), 8 females, FIG. 2C), the “testosterone levels (in females)” value is given as “increased”. In addition, the 11-deoxycortisol level entry in data set [1] (during LCI699 treatment (day 70), FIG. 2B) is “build-up”. In addition, the 11-deoxycorticosterone levels result in data set [1] (during LCI699 treatment (day 70), FIG. 2D) is “increased”. The serum cortisol result in data set [1] (during LCI699 treatment (day 70), up to 100 mg/day b.i.d., n=12) was “decrease in serum cortisol”. Besides, in data set [2] (22-week treatment course), the females developing acne entry was “three”, the females developing hirsutism entry was “two” and the “females with elevated testosterone who developed adverse symptoms of androgen excess” value is reported as “Four”. The “women with above normal testosterone levels during the treatment course” value in data set [2] (of the 12 women who completed 22 weeks, normal range 2-45 ng/dL, 4-60 mg/day) is given as 9.

The values above are taken from US20160287565A1, “COMBINATION THERAPY FOR TREATING DISORDERS ASSOCIATED WITH EXCESS CORTISOL PRODUCTION” (Millendo Therapeutics, Inc., priority 2015, published 2016).
